How the values were obtained:
[1] = Inhibition of rat recombinant geranylgeranyltransferase type I expressed in Escherichia coli assessed as reduction in geranylgeranylation of RhoA incubated for 30 mins in presence of [3H]GGPP by scintillation counting assay relative to control
Rattus norvegicus [2] = organism: Rattus norvegicus; assay: Inhibition of rat recombinant geranylgeranyltransferase type I expressed in Escherichia coli assessed as residual enzyme activity for geranylgeranylation of K-Ras4B at 50 uM incubated for 30 mins in presence of [3H]GGPP by scintillation counting assay relative to control
Rattus norvegicus [3] = organism: Rattus norvegicus; assay: Inhibition of rat recombinant geranylgeranyltransferase type I expressed in Escherichia coli assessed as residual enzyme activity for geranylgeranylation of RhoA at 50 uM incubated for 30 mins in presence of [3H]GGPP by scintillation counting assay relative to control

Row | IC50 [1] [nM] | Activity (Rattus norvegicus [2]) [%] | Activity (Rattus norvegicus [3]) [%] | Structure (SMILES)
1 | 32 | – | – | O=C(N[C@@H](Cc1ccccc1)C(=O)O)C1=CC[C@@H](c2cccc(Cl)c2)N(S(=O)(=O)c2ccc(Br)cc2)[C@H]1c1cccc(Br)c1
2 | > 20000 | – | – | CC(C)C[C@H](NC(=O)C1=CC[C@@H](c2cccc(Cl)c2)N(S(=O)(=O)c2ccc(Br)cc2)[C@H]1c1cccc(Cl)c1)C(N)=O
3 | 310 | – | – | O=C(O)C1=CC[C@@H](c2ccc(Cl)c(Cl)c2)N(S(=O)(=O)c2ccc(Cl)cc2)[C@H]1c1cccc(Cl)c1
4 | 398 | – | – | O=C(O)C1=CC[C@@H](c2ccc(Br)cc2)N(S(=O)(=O)c2ccc(Br)cc2)[C@H]1c1cccc(Cl)c1
5 | 125 to 154 | – | – | O=C(O)C1=CC[C@@H](c2cccc(Br)c2)N(S(=O)(=O)c2ccc(Cl)cc2)[C@H]1c1cccc(Cl)c1
6 | 841 | – | – | O=C(O)C1=CC[C@@H](c2cccc(Br)c2)N(S(=O)(=O)c2ccc(Cl)cc2)[C@H]1c1cccc(F)c1
7 | > 20000 | – | – | CC(C)(C)[C@@H]1C=C(C(=O)N[C@@H](Cc2ccccc2)C(N)=O)[C@H](c2ccc(Cl)c(Cl)c2)N1S(=O)(=O)c1ccccc1Br
8 | 330 | – | – | Cc1cccc([C@@H]2CC=C(C(=O)O)[C@H](c3cccc(Br)c3)N2S(=O)(=O)c2ccc(Br)cc2)c1
9 | 529 | – | – | O=C(O)C1=CC[C@@H](c2cccc(Br)c2)N(S(=O)(=O)c2ccc(Br)cc2)[C@H]1c1cccc(Cl)c1
10 | 241 | – | – | O=C(O)C1=CC[C@@H](c2cccc(Cl)c2)N(S(=O)(=O)c2ccc(Cl)cc2)[C@H]1c1cccc(Cl)c1
11 | 4400 | – | – | CC(C)(C)[C@@H]1C=C(C(=O)O)[C@H](c2ccc(Cl)c(Cl)c2)N1S(=O)(=O)C(C)(C)C
12 | – | 21.3 | 9.2 | CCCCCC[C@@H]1[C@@H](Sc2ccc(C)cc2)[C@@H](C(=O)O)[C@H](c2ccc(Cl)c(Cl)c2)N1S(=O)(=O)c1ccc(C)cc1
13 | – | 21.7 | 9.2 | CCC[C@@H]1[C@@H](SCCC(=O)OC(C)(C)C)[C@@H](C(=O)O)[C@H](c2ccc(Cl)cc2)N1S(=O)(=O)c1ccc(Cl)cc1
14 | – | 21.5 | 6 | C=CCS[C@H]1[C@@H](C(=O)O)[C@H](c2ccc(C#N)cc2)N(S(=O)(=O)c2ccc(C)cc2)[C@@H]1CCCCCC
15 | – | 25.1 to 26 | 12 | Cc1ccc(S(=O)(=O)N2C[C@@H](C(=O)O)[C@H](SCCC(C)C)C[C@H]2c2cccc(Cl)c2)cc1
16 | – | 15.2 to 19.5 | 6 | COc1ccc([C@@H]2C[C@@H](SCCc3ccccc3)[C@H](C(=O)O)CN2S(=O)(=O)c2ccccc2C)cc1
17 | – | 15.5 | 5.5 | C=CCS[C@H]1[C@@H](C(=O)O)[C@H](c2ccc(Br)cc2)N(S(=O)(=O)c2ccc(C)cc2)[C@@H]1CCCCCC
18 | – | 111 | 6 | Cc1ccc(S(=O)(=O)N2C[C@@H](C(=O)O)[C@H](Sc3ccc(Cl)cc3)C[C@H]2c2cccc(Cl)c2)cc1
19 | – | 15.6 to 28.8 | 12.6 | Cc1ccccc1S(=O)(=O)N1[C@@H](c2ccc(F)cc2)C(C(=O)O)=CC[C@H]1c1ccc(Cl)cc1
20 | – | 14.7 | 4.1 | CCC[C@@H]1[C@@H](Sc2ccc(C)cc2)[C@@H](C(=O)O)[C@H](c2cccc(F)c2)N1S(=O)(=O)c1ccc(C)cc1

Row | IC50 [1] [nM] | Activity (Rattus norvegicus [2]) [%] | Activity (Rattus norvegicus [3]) [%] | Structure (SMILES)
21 | – | 43.5 to 43.7 | 19.8 | CCCCS[C@@H]1C[C@@H](c2ccc(C)cc2)N(S(=O)(=O)c2ccccc2C)C[C@H]1C(=O)O
22 | – | 5.4 to 13.4 | 3 | Cc1ccccc1S(=O)(=O)N1[C@@H](c2cccc(F)c2)C(C(=O)O)=CC[C@H]1c1ccc(Cl)cc1
23 | – | 10.6 to 19.2 | 8.8 | Cc1ccccc1S(=O)(=O)N1[C@@H](c2cccc(Br)c2)C(C(=O)O)=CC[C@H]1c1ccc(Cl)cc1
24 | – | 10.7 to 26 | 4.5 | Cc1ccc(S(=O)(=O)N2C(c3ccc(Cl)c(Cl)c3)CC=C(C(=O)O)C2c2cccc(Cl)c2)cc1 (centres undefined)
25 | – | 11.2 to 12.6 | 4.1 | Cc1ccccc1S(=O)(=O)N1C[C@@H](C(=O)O)[C@H](SCCc2ccccc2)C[C@H]1c1ccc(Cl)cc1
26 | – | 24.9 | 6 | C=CCS[C@H]1[C@@H](C(=O)O)[C@H](c2ccc(Cl)cc2)N(S(=O)(=O)c2ccccc2C)[C@@H]1CCCCCC
27 | – | 4.7 to 7.3 | 3.1 | Cc1ccc(S(=O)(=O)N2C[C@@H](C(=O)O)[C@H](SCCc3ccccc3)C[C@H]2c2cccc(Br)c2)cc1
28 | – | 72.4 | 2.6 | CCOc1ccc([C@@H]2C[C@@H](Sc3ccc(Cl)cc3)[C@H](C(=O)O)CN2S(=O)(=O)c2ccc(C)cc2)cc1
29 | – | 30.4 | 9.7 | C=CCS[C@H]1[C@@H](C(=O)O)[C@H](c2cccc(F)c2)N(S(=O)(=O)c2ccc(C)cc2)[C@@H]1CC1CCCC1
30 | – | 16.1 | 7.3 | Cc1ccc(S(=O)(=O)N2[C@H](CC3CCCC3)[C@@H](SCCC(=O)OC(C)(C)C)[C@@H](C(=O)O)[C@@H]2c2ccc(Cl)c(Cl)c2)cc1
31 | – | 11.5 to 15.8 | 4.6 | Cc1ccc(S(=O)(=O)N2C[C@@H](C(=O)O)[C@H](SCc3ccccc3)C[C@H]2c2ccc(Cl)cc2)cc1
32 | – | 75.5 | 7.8 | Cc1ccccc1S(=O)(=O)N1C[C@@H](C(=O)O)[C@H](Sc2ccccc2)C[C@H]1c1ccc(Cl)cc1
33 | – | 20.1 | 7.4 | CCCCCC[C@@H]1[C@@H](SC2CCCC2)[C@@H](C(=O)O)[C@H](c2ccc(C#N)cc2)N1S(=O)(=O)c1ccc(C)cc1
34 | – | 5.9 to 9 | -1.5 | CCCCS[C@@H]1C[C@@H](c2cccc(Br)c2)N(S(=O)(=O)c2ccc(C)cc2)C[C@H]1C(=O)O
35 | – | 52.1 | 4.9 | Cc1ccc(S(=O)(=O)N2C[C@@H](C(=O)O)[C@H](Sc3ccc(Cl)cc3)C[C@H]2c2ccc(Cl)cc2)cc1
36 | – | 15.1 | 6.8 | C=CCS[C@H]1[C@@H](C(=O)O)[C@H](c2ccc(Cl)c(Cl)c2)N(S(=O)(=O)c2ccc(C)cc2)[C@@H]1CCCCCC
37 | – | 31.9 | 8.2 | Cc1ccc(S(=O)(=O)N2[C@H](CC3CCCC3)[C@@H](SCCC(=O)OC(C)(C)C)[C@@H](C(=O)O)[C@@H]2c2cccc(F)c2)cc1
38 | – | 19.6 to 20.4 | 10.5 | Cc1ccc([C@@H]2C[C@@H](SCc3ccc(Cl)cc3)[C@H](C(=O)O)CN2S(=O)(=O)c2ccccc2C)cc1
39 | – | 23.9 to 30.9 | 0.5 | COc1ccc([C@@H]2C[C@@H](SCc3ccc(Cl)cc3)[C@H](C(=O)O)CN2S(=O)(=O)c2ccccc2C)cc1
40 | – | 29.2 to 83.6 | 13.6 | C=CCS[C@@H]1C[C@@H](c2cccc(Br)c2)N(S(=O)(=O)c2ccc(C)cc2)C[C@H]1C(=O)O

Row | IC50 [1] [nM] | Activity (Rattus norvegicus [2]) [%] | Activity (Rattus norvegicus [3]) [%] | Structure (SMILES)
41 | – | 20.8 to 24.2 | 11.4 | COc1cccc([C@@H]2C[C@@H](SCCc3ccccc3)[C@H](C(=O)O)CN2S(=O)(=O)c2ccc(C)cc2)c1
42 | – | 97.2 | 11.9 | COc1ccc([C@@H]2C[C@@H](Sc3ccccc3)[C@H](C(=O)O)CN2S(=O)(=O)c2ccc(Cl)cc2)cc1
43 | – | 10.2 to 13.8 | 5.3 | Cc1ccc([C@@H]2C[C@@H](SCCc3ccccc3)[C@H](C(=O)O)CN2S(=O)(=O)c2ccccc2C)cc1
44 | – | 33.1 | 26.7 | O=C(O)C1=CC[C@@H](c2ccc(Cl)cc2)N(S(=O)(=O)c2ccc(Cl)cc2)[C@H]1c1cccc(Cl)c1
45 | – | 32 to 35.6 | 17.5 | Cc1ccc([C@@H]2C[C@@H](SCc3ccccc3)[C@H](C(=O)O)CN2S(=O)(=O)c2ccccc2C)cc1
46 | – | 16.1 to 31.9 | 14.3 | Cc1ccc(S(=O)(=O)N2[C@@H](c3cccc(C)c3)C(C(=O)O)=CC[C@H]2c2cccc(Br)c2)cc1
47 | – | 27.4 | 3.5 | CCC[C@@H]1[C@@H](Sc2ccc(OC)cc2)[C@@H](C(=O)O)[C@H](c2cccc(F)c2)N1S(=O)(=O)c1ccc(C)cc1
48 | – | 23.4 | 6.1 | COc1ccc([C@H]2C(C(=O)O)=C[C@@H](C(C)(C)C)N2S(=O)(=O)c2ccc(C)cc2)cc1OC
49 | – | 72.2 | 17.7 | COc1ccc([C@@H]2C[C@@H](Sc3ccc(Cl)cc3)[C@H](C(=O)O)CN2S(=O)(=O)c2ccccc2C)cc1
50 | – | 27.4 | 3.5 | CCCC[C@@H]1[C@@H](Sc2ccc(OC)cc2)[C@@H](C(=O)O)[C@H](c2cccc(F)c2)N1S(=O)(=O)c1ccc(C)cc1
51 | – | 40 | 4.6 | Cc1ccc(S(=O)(=O)N2C[C@@H](C(=O)O)[C@H](Sc3ccccc3)C[C@H]2c2ccc(Cl)cc2)cc1
52 | – | 15.2 to 16.5 | 5.8 | Cc1ccc(S(=O)(=O)N2C[C@@H](C(=O)O)[C@H](SCCc3ccccc3)C[C@H]2c2ccccc2)cc1
53 | – | 30.8 to 31.6 | 3.3 | Cc1ccc([C@@H]2C[C@@H](SCc3ccc(Cl)cc3)[C@H](C(=O)O)CN2S(=O)(=O)c2ccc(Cl)cc2)cc1
54 | – | 27.2 | 7.6 | CC[C@@H]1[C@@H](SCCC(=O)OC(C)(C)C)[C@@H](C(=O)O)[C@H](c2ccc(Cl)c(Cl)c2)N1S(=O)(=O)c1ccc(C)cc1
55 | – | 78.3 | 17.2 | Cc1ccc([C@@H]2C[C@@H](Sc3ccc(Cl)cc3)[C@H](C(=O)O)CN2S(=O)(=O)c2ccccc2)cc1
56 | – | 8.6 to 17.3 | 5 | O=C(O)C1=CC[C@@H](c2ccc(Cl)cc2)N(S(=O)(=O)c2ccc(Cl)cc2)[C@H]1c1cccc(Br)c1
57 | – | 29.2 to 31.9 | 13.4 | COc1ccc([C@@H]2C[C@@H](SCc3ccc(Cl)cc3)[C@H](C(=O)O)CN2S(=O)(=O)c2ccccc2)cc1
58 | – | 17.7 to 21.3 | 12.1 | Cc1ccc(S(=O)(=O)N2[C@@H](c3ccc(Cl)cc3)C(C(=O)O)=CC[C@H]2c2ccc(Cl)c(Cl)c2)cc1
59 | – | 7.8 to 8 | 3.2 | Cc1ccc(S(=O)(=O)N2C[C@@H](C(=O)O)[C@H](SCc3ccc(Cl)cc3)C[C@H]2c2cccc(Br)c2)cc1
60 | – | 15 | 7.5 | CCCCCC[C@@H]1[C@@H](Sc2ccc(C)cc2)[C@@H](C(=O)O)[C@H](c2ccc(Cl)cc2)N1S(=O)(=O)c1ccccc1
